Experiments:
[1] = molecular target: T1, Nitric oxide synthase, inducible (Mus musculus, UniProt P29477); set-up: species or system Escherichia coli;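 note: inhibition of iNOS enzyme activity measured with L-arginine as substrate; in other assays of this panel Not Active means under 50% inhibition at 10 µM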
T1 sequence (P29477 whole entry): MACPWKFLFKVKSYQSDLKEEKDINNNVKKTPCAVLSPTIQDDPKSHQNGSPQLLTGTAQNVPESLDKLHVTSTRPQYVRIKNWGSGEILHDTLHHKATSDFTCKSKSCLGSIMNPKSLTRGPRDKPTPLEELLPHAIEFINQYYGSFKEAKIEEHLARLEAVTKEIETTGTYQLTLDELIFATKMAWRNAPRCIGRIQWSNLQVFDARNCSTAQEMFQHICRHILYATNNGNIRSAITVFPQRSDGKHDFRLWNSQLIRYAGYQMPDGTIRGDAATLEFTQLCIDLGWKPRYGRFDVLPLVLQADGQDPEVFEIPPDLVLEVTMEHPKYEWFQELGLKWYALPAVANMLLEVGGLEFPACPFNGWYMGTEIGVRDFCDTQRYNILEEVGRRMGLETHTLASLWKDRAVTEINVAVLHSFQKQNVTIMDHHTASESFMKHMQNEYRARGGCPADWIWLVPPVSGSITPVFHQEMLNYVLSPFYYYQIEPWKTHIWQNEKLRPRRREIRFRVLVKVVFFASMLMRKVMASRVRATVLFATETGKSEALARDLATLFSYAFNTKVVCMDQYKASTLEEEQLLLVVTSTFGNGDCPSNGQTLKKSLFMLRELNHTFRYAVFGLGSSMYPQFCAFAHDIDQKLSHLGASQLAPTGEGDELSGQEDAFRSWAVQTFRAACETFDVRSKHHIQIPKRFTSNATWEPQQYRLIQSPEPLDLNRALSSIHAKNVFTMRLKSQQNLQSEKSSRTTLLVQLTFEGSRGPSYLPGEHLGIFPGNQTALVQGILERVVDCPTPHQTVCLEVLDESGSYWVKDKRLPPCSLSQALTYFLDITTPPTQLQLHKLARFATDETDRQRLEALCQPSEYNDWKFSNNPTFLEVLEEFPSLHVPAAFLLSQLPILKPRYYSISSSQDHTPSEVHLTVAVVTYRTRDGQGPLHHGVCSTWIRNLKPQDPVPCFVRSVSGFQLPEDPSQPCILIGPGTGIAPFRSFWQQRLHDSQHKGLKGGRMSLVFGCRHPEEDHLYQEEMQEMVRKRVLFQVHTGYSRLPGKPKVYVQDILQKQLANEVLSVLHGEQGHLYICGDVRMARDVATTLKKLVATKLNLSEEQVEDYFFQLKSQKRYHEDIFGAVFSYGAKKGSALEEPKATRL

Carbonic anhydrase 2 = Carbonic anhydrase 2 (Homo sapiens, UniProt P00918); assay: DRUGMATRIX: Carbonic Anhydrase II enzyme inhibition (substrate: 4-Nitrophenyl acetate (4-NPA)); type: tissue-based; settings: erythrocyte; Not Active = under 50% inhibition at 10 µM
Cytochrome P450 1A2 = molecular target: T2, Cytochrome P450 1A2 (Homo sapiens, UniProt P05177); settings: bti-tn-5b1-4; note: in other assays of this panel Not Active means under 50% inhibition at 10 µM
T2 sequence (P05177 whole entry): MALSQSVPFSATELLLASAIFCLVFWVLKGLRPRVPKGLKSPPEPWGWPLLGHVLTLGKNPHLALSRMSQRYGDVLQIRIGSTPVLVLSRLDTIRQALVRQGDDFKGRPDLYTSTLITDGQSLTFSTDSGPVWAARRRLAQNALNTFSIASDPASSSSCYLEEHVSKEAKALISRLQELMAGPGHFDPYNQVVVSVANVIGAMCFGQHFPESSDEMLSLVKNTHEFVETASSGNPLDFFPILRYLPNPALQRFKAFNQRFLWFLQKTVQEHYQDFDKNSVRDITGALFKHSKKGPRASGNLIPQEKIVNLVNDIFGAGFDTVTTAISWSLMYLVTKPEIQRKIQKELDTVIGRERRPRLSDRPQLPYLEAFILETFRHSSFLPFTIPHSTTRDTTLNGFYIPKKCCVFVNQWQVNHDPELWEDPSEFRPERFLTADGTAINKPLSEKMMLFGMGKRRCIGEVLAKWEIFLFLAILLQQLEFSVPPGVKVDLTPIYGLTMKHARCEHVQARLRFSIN

[2] = DRUGMATRIX: Glutamate, NMDA, Phencyclidine radioligand binding (ligand: [3H] TCP); type: cell membranes, Rattus norvegicus, Wistar, Cerebral cortex, Membrane; settings: Not Active = under 50% inhibition at 10 µM
Cytochrome P450 2C19 = Cytochrome P450 2C19 (Homo sapiens, UniProt P33261); settings: bti-tn-5b1-4; note: in other assays of this panel Not Active means under 50% inhibition at 10 µM
D(4) dopamine receptor = molecular target: T3, D(4) dopamine receptor (Homo sapiens, UniProt P21917); assay: DRUGMATRIX: Dopamine D4.2 radioligand binding (ligand: [3H] Spiperone); type: cell membranes, CHO-K1, Membrane; settings: cho-k1; Not Active = under 50% inhibition at 10 µM
T3 sequence (P21917 whole entry): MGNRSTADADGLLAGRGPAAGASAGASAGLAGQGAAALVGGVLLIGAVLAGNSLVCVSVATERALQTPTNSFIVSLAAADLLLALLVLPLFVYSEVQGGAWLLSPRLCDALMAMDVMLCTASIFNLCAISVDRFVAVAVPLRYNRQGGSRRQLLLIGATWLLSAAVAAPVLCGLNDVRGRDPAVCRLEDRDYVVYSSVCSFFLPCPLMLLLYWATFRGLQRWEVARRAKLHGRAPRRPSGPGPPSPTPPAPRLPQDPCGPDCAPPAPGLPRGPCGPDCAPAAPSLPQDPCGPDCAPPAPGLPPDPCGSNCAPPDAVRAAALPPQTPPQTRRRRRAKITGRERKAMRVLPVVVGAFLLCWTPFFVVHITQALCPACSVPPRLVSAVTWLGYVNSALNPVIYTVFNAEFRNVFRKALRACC

[3] = molecular target: Mitogen-activated protein kinase 1 (Homo sapiens, UniProt P28482); assay: DRUGMATRIX: Protein Serine/Threonine Kinase, ERK2 enzyme inhibition (substrate: Myelin Basic Protein); set-up: species or system Escherichia coli; settings: Not Active = under 50% inhibition at 10 µM
[4] = molecular target: Tyrosine-protein kinase Lck (Homo sapiens, UniProt P06239); assay: DRUGMATRIX: Protein Tyrosine Kinase, LCK enzyme inhibition (substrate: Poly(Glu:Tyr)); type: cell-based, Insect cells; settings: insect cells; Not Active = under 50% inhibition at 10 µM
Sequence of Tyrosine-protein kinase Lck (P06239 whole entry): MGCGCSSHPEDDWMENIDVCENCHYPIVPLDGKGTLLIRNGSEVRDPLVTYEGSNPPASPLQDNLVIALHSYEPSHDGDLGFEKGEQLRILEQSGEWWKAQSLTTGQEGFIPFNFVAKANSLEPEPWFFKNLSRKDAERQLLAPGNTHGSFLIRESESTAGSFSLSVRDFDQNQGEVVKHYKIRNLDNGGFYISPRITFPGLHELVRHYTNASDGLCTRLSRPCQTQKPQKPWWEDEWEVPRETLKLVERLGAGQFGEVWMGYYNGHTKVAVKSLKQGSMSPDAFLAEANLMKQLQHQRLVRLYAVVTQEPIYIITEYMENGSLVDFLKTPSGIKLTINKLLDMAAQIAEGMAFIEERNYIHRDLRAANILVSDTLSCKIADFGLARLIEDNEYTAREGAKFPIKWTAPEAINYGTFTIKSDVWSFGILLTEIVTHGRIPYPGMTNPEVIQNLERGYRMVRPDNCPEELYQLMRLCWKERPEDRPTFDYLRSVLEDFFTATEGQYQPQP

Sequence of Mitogen-activated protein kinase 1 (P28482 whole entry): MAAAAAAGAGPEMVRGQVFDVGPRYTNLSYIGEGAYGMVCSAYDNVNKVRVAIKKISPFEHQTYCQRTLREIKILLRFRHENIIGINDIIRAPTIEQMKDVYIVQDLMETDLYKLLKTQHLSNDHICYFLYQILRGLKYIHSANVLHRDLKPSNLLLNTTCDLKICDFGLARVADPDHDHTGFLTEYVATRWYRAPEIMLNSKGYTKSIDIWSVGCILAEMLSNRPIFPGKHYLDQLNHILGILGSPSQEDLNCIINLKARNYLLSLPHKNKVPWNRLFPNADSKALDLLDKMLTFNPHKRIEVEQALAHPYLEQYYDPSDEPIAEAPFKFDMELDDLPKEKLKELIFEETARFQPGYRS
Sequence of Cytochrome P450 2C19 (P33261 whole entry): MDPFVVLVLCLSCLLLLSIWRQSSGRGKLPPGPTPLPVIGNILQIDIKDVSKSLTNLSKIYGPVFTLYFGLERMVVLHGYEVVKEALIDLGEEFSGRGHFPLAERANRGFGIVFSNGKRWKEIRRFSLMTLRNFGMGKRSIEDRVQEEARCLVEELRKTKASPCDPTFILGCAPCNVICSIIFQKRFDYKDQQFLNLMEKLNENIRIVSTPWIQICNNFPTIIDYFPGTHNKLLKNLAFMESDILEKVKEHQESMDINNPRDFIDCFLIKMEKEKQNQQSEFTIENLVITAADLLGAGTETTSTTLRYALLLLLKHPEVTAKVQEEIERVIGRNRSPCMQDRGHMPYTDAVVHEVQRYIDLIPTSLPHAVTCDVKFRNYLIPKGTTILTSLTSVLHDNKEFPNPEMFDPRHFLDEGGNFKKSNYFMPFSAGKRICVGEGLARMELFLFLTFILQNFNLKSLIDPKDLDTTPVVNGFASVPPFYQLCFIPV

O=C/C=C/c1ccccc1
Not Active: IC50 [1] | IC50 (Carbonic anhydrase 2) | IC50 (Cytochrome P450 1A2) | Ki (Cytochrome P450 1A2) | IC50 [2] | Ki [2] | IC50 (Cytochrome P450 2C19) | Ki (Cytochrome P450 2C19) | IC50 (D(4) dopamine receptor) | IC50 [3] | IC50 [4]

Nc1ccc2c3c(cccc13)C(=O)NC2=O
Not Active: IC50 [1] | IC50 (Carbonic anhydrase 2) | IC50 (Cytochrome P450 1A2) | Ki (Cytochrome P450 1A2) | IC50 [2] | Ki [2] | IC50 (Cytochrome P450 2C19) | Ki (Cytochrome P450 2C19) | IC50 (D(4) dopamine receptor) | IC50 [3] | IC50 [4]

O=c1cnn([C@@H]2O[C@H](CO)[C@@H](O)[C@H]2O)c(=O)[nH]1 [6-AZAURIDINE]
Not Active: IC50 [1] | IC50 (Carbonic anhydrase 2) | IC50 (Cytochrome P450 1A2) | Ki (Cytochrome P450 1A2) | IC50 [2] | Ki [2] | IC50 (Cytochrome P450 2C19) | Ki (Cytochrome P450 2C19) | IC50 (D(4) dopamine receptor) | IC50 [3] | IC50 [4]

CC[C@H](C)[C@H]1O[C@]2(C=C[C@@H]1C)C[C@@H]1C[C@@H](C/C=C(\C)[C@@H](O[C@H]3C[C@H](OC)[C@@H](O[C@H]4C[C@H](OC)[C@@H](O)[C@H](C)O4)[C@H](C)O3)[C@@H](C)/C=C/C=C3\CO[C@@H]4[C@H](O)C(C)=C[C@@H](C(=O)O1)[C@]34O)O2.CO[C@H]1C[C@H](O[C@H]2[C@H](C)O[C@@H](O[C@@H]3/C(C)=C/C[C@@H]4C[C@@H](C[C@]5(C=C[C@H](C)[C@@H](C(C)C)O5)O4)OC(=O)[C@@H]4C=C(C)[C@@H](O)[C@H]5OC/C(=C\C=C\[C@@H]3C)[C@]54O)C[C@@H]2OC)O[C@@H](C)[C@@H]1O [ABAMECTIN]
Not Active: IC50 [1] | IC50 (Carbonic anhydrase 2) | IC50 (Cytochrome P450 1A2) | Ki (Cytochrome P450 1A2) | IC50 [2] | Ki [2] | IC50 (Cytochrome P450 2C19) | Ki (Cytochrome P450 2C19) | IC50 (D(4) dopamine receptor) | IC50 [3] | IC50 [4]

Cc1nnc2n1-c1ccc(Cl)cc1C(c1ccccc1)=NC2 [ALPRAZOLAM]
Not Active: IC50 [1] | IC50 (Carbonic anhydrase 2) | IC50 (Cytochrome P450 1A2) | Ki (Cytochrome P450 1A2) | IC50 [2] | Ki [2] | IC50 (Cytochrome P450 2C19) | Ki (Cytochrome P450 2C19) | IC50 (D(4) dopamine receptor) | IC50 [3] | IC50 [4]

CC(C)(C)NC(=O)[C@H]1CC[C@H]2[C@@H]3CC[C@H]4NC(=O)C=C[C@]4(C)[C@H]3CC[C@]12C [FINASTERIDE]
Not Active: IC50 [1] | IC50 (Carbonic anhydrase 2) | IC50 (Cytochrome P450 1A2) | Ki (Cytochrome P450 1A2) | IC50 [2] | Ki [2] | IC50 (D(4) dopamine receptor) | IC50 [3] | IC50 [4]

COC1=C(OC)C(=O)C(CCCCCCCCCCO)=C(C)C1=O [IDEBENONE]
Not Active: IC50 [1] | IC50 (Carbonic anhydrase 2) | IC50 (Cytochrome P450 1A2) | Ki (Cytochrome P450 1A2) | IC50 [2] | Ki [2] | IC50 (D(4) dopamine receptor) | IC50 [3] | IC50 [4]

Cc1c(OCC(F)(F)F)ccnc1C[S+]([O-])c1nc2ccccc2[nH]1 (stereo not drawn) [LANSOPRAZOLE]
Not Active: IC50 [1] | IC50 (Carbonic anhydrase 2) | IC50 (Cytochrome P450 1A2) | Ki (Cytochrome P450 1A2) | IC50 [2] | Ki [2] | IC50 (D(4) dopamine receptor) | IC50 [3] | IC50 [4]

COc1ccc2[nH]cc(CCNC(C)=O)c2c1 [MELATONIN]
Not Active: IC50 [1] | IC50 (Carbonic anhydrase 2) | IC50 (Cytochrome P450 1A2) | Ki (Cytochrome P450 1A2) | IC50 [2] | Ki [2] | IC50 (D(4) dopamine receptor) | IC50 [3] | IC50 [4]

O=C(N/N=C/c1ccc([N+](=O)[O-])o1)c1cc([N+](=O)[O-])cc([N+](=O)[O-])c1O [NIFURSOL]
Not Active: IC50 [1] | IC50 (Carbonic anhydrase 2) | IC50 (Cytochrome P450 1A2) | Ki (Cytochrome P450 1A2) | IC50 [2] | Ki [2] | IC50 (D(4) dopamine receptor) | IC50 [3] | IC50 [4]

CC(=O)O[C@H]1C(=O)[C@@]2(C)[C@H]([C@H](OC(=O)c3ccccc3)[C@]3(O)C[C@H](OC(=O)[C@H](O)[C@@H](NC(=O)c4ccccc4)c4ccccc4)C(C)=C1C3(C)C)[C@]1(OC(C)=O)CO[C@@H]1C[C@@H]2O [PACLITAXEL]
Not Active: IC50 [1] | IC50 (Carbonic anhydrase 2) | IC50 (Cytochrome P450 1A2) | Ki (Cytochrome P450 1A2) | IC50 [2] | Ki [2] | IC50 (D(4) dopamine receptor) | IC50 [3] | IC50 [4]

CCn1cc(C(=O)O)c(=O)c2cnc(N3CCCC3)nc21 [PIROMIDIC ACID]
Not Active: IC50 [1] | IC50 (Carbonic anhydrase 2) | IC50 [2] | Ki [2] | IC50 (Cytochrome P450 2C19) | Ki (Cytochrome P450 2C19) | IC50 (D(4) dopamine receptor) | IC50 [3] | IC50 [4]

Source: ChEMBL document CHEMBL1909046, “DrugMatrix in vitro pharmacology data”
